Assay results taken from PMC9851200, “Multiparameter phenotypic screening for endogenous TFEB and TFE3 translocation identifies novel chemical series modulating lysosome function” (Autophagy, 2022).
Read-outs that look alike come from different tables or passages of the source.

Key:
Conditions in all cases: PKIS2 primary screening
endogenous TFEB = assay: TFEB nuclear translocation, immunocytochemistry high-content imaging; type: cell-based
endogenous TFE3 = assay: TFE3 nuclear translocation, immunocytochemistry high-content imaging; type: cell-based
SH-SY5Y cells [1] = system: SH-SY5Y cells; note: reference of the scale not given here
SH-SY5Y cells [2] = assay: AK (adenylate kinase) release ToxiLight cytotoxicity assay; note: reference of the scale not given here
SH-SY5Y cells [3] = assay: Nuclear count from microscopy images (cellular growth and toxicity); note: reference of the scale not given here

SMILES | TFEB % (endogenous TFEB) | TFE3 % (endogenous TFE3) | DQ Intensity (SH-SY5Y cells [1]; DQ Red BSA intensity) | DQ Spot (SH-SY5Y cells [1]; DQ Red BSA spot count) | AK (SH-SY5Y cells [2]) | Nuclear Count (SH-SY5Y cells [3]) | DQ Intensity (SH-SY5Y cells [1]) | DQ Spot (SH-SY5Y cells [1])
Fc1cccc(COc2ccc(Nc3ncnc4sc(-c5ccc[nH]5)cc34)cc2Cl)c1 [UNC10225101A] | 8.38% | 15.82% | 109.09 | 86.09 | 123.35 | 106.63 | – | –
Clc1ccc(-c2nn3ncccc3c2-c2ccnc(Nc3ccc4c(c3)OCCO4)n2)cc1 [UNC10225358A] | 8.16% | 11.64% | – | – | 157.53 | 125.14 | 88.44 | 98.66
CN(c1ccc(NC(=O)N2CCN(CCCN3CCOCC3)CC2)cc1)c1ccnc(Nc2ccc(CS(C)(=O)=O)cc2)n1 [GW830899] | 7.11% | 11.27% | 91.97 | 98.21 | 75.66 | 123.35 | – | –
Cn1cc(-c2ccc3c(c2)CCN3C(=O)Cc2cccc(C(F)(F)F)c2)c2c(N)ncnc21 [UNC10225165A] | 6.03% | 14.20% | – | – | 93.68 | 103.31 | 124.78 | 91.55
Cc1cc(N2Cc3ccccc3C2)nc(Nc2ccc(S(=O)(=O)N3CCOCC3)cc2)n1 [GSK1669917] | 1.55% | 8.23% | 64.14 | 76.32 | 117.66 | 138.98 | – | –
Cc1ccc(NC(=O)c2cccc(C#N)c2)cc1-c1ccc(C(=O)Nc2ccncc2)cc1 [UNC10225263A] | 13.51% | 18.65% | – | – | 76.98 | 75.93 | 106.14 | 106.02
O=c1cc(N2CCOCC2)nc2n(Cc3cccc(F)c3)ccn12 [UNC10225332A] | 6.97% | 15.66% | – | – | 128.93 | 95.52 | 100.57 | 98.19
CCn1c(-c2nonc2N)nc2ccccc21 [UNC10112830A] | 9.19% | 10.17% | – | – | 85.29 | 114.37 | 143.39 | 111.62
Fc1ccc(-c2ncn(CCCN3CCOCC3)c2-c2cccnc2)cc1 [UNC10225320A] | 7.10% | 16.30% | 94.06 | 100.66 | 125.08 | 104.41 | – | –
Cn1cc(-c2ccc3c(c2)CCN3C(=O)Cc2ccccc2Cl)c2c(N)ncnc21 [UNC10225172A] | 8.22% | 8.56% | – | – | 106.54 | 63.66 | 88.08 | 66.39
NC(=O)c1cccc(Nc2nccc(Nc3ccc(Oc4c(Cl)cccc4Cl)c(Cl)c3)n2)c1 [GW659009] | 6.80% | 20.40% | 60.26 | 79.24 | 74.50 | 101.88 | – | –
COC(=O)c1cccc(NC(=O)NC2CCN(c3ccnc(Nc4ccc(F)cc4)n3)C2)c1 (stereo not drawn) [GSK1379725] | 7.57% | 21.26% | 80.47 | 88.32 | 90.74 | 95.32 | – | –
CN(c1ccc(NC(=O)Nc2cccc(Cl)c2)cc1)c1ccnc(N)n1 [GW830707] | 11.00% | 9.81% | 86.00 | 87.81 | 94.92 | 115.77 | – | –
COc1ccc(Nc2nccc(N3CCC(NC(=O)Nc4cccc(OC)c4)C3)n2)cc1 (stereo not drawn) [GSK1379742] | 8.93% | 16.87% | 119.16 | 99.38 | 126.78 | 103.65 | – | –
COc1cc(Nc2ccnc3ccc(C(F)(F)F)cc23)cc(OC)c1OC [UNC10225109A] | 5.89% | 7.95% | 93.31 | 111.66 | 98.24 | 107.71 | – | –
Fc1ccc(Nc2nccc(-c3c(-c4ccc(Cl)cc4)nn4ncccc34)n2)cc1F [UNC10225073A] | 10.16% | 12.07% | – | – | 84.83 | 119.55 | 129.98 | 108.87
c1ccc(-c2cnc3nccnn23)cc1 [UNC10225020A] | 8.54% | 11.36% | – | – | 125.59 | 110.84 | 109.95 | 119.05
Clc1cc(Cl)cc(Nc2ccnc(Nc3cc(Cl)cc(Cl)c3)n2)c1 [GSK175726] | 3.77% | 10.08% | 98.51 | 117.48 | 105.62 | 91.70 | – | –
Cc1ccccc1CC(=O)N1CCc2cc(-c3cn(C)c4ncnc(N)c34)ccc21 [UNC10225254A] | 10.80% | 19.37% | – | – | 77.66 | 109.34 | 93.20 | 89.69
O=C(Nc1cccc(-c2nn3ncccc3c2-c2ccnc(Nc3cccc(C(F)(F)F)c3)n2)c1)c1c(F)cccc1F [UNC10225174A] | 2.89% | 11.86% | – | – | 107.72 | 93.11 | 102.81 | 113.18
COc1cc(Nc2nccc(-c3c(-c4cccc(NC(=O)c5c(F)cccc5F)c4)nn4ncccc34)n2)cc(OC)c1OC [UNC10225433A] | 23.04% | 17.61% | – | – | 102.19 | 35.61 | 122.13 | 59.34
O=C(c1ccc(-c2cc(-c3c[nH]nc3-c3ccccn3)ccn2)cc1)N1CCCC1 [UNC10225230A] | 9.58% | 11.53% | 81.19 | 99.92 | 75.56 | 86.33 | – | –
COc1cccc(-c2nc(-c3ccccc3)[nH]c2-c2ccncc2)c1 [UNC10225025A] | 4.20% | 10.01% | 97.17 | 101.78 | 113.94 | 132.30 | – | –
FC(F)(F)c1ccc(/C=C/c2cncnc2Nc2ccc3[nH]c(Cc4ccccc4)nc3c2)cc1 [UNC10225096A] | 6.39% | 12.52% | 116.48 | 101.82 | 102.23 | 103.45 | – | –
Cn1cncc1-c1ccc2ncnc(Nc3ccc(OCc4ccccc4)cc3)c2c1 [UNC10225497A] | 8.56% | 13.09% | 100.86 | 83.02 | 50.65 | 104.34 | – | –
Cc1cc(N2CCC(NS(=O)(=O)c3ccc(F)cc3)CC2)nc(Nc2cccc(C#N)c2)n1 [GSK1653537] | 10.28% | 18.21% | 104.60 | 98.84 | 183.29 | 84.44 | – | –
O=C(Nc1cccc(-c2nn3ncccc3c2-c2ccnc(Nc3ccccc3)n2)c1)c1c(F)cccc1F [UNC10225232A] | 3.87% | 11.89% | – | – | 143.10 | 127.09 | 89.13 | 101.26
